Assay results reported in patent US12668585B2, “Substituted pyrimidinyl-pyrazoles as CDK2 inhibitors” (BLUEPRINT MEDICINES CORPORATION, priority 2021, dated 2026).
pIC50: −log10 of the molar value.

Legend:
CDK1/Cyclin B1, GST-tag = target: T1, CDK1/Cyclin B1, GST-tag (Homo sapiens, UniProt P06493); test: Biochemical CDK inhibition assay (Caliper mobility shift), CDK1/Cyclin B1
T1 construct: GST; purchased BPS 40454
Procedure: (§1) Inhibitory effects of the compounds of the disclosure were measured in biochemical assays that measure the enzymatic phosphorylation activity of CDK enzyme in complex of Cyclin proteins phosphorylates 7.5 micromolar fluorescently labelled peptide substrate, 5-FAM-QSPKKG-CONH2, (FL-Peptide 18, Perkin Elmer, 760362) in the presence of adenosine-5′-triphosphate (ATP) and varying concentrations of the test compound in 100 mM 2-[4-(2-hydroxyethyl)piperazin-1-yl] ethanesulfonic acid (HEPES), pH 7.5, 10 mM MgCl2, 0.015% Brij-35, 1 mM dithiothreitol (DTT), 1.0% dimehylsulfoxide (DMSO). […] Reactions proceeded until between 10% to 20% total peptides were phosphorylated at room temperature (25° C.) and were terminated with 35 mM 2,2′,2″,2′″-(ethane-1,2-diyldinitrilo)tetraacetic acid (EDTA). Product was detected using the Caliper mobility shift detection method where the phosphorylated peptide (product) and substrate were electrophoretically separated and measured. Percent activity was plotted against log concentration of compound and points to generate an apparent IC50. The following CDK enzymes in complex with different cyclin proteins were used in these assays: • CDK1/Cyclin B1, GST-tag (BPS, 40454), 1.5 nM used in the assay • CDK2/Cyclin E (Eurofins, 14-475), 1.25 nM used in the assays
(§2) For inhibitory activity against CDK2/Cyclin E mutant, the following designations are used: ≤10 nM=A; >10-20 nM=B; >20-30 nM=C; >30-100 nM=D and >100=E. For inhibition CDK1/Cyclin B1, GST-tag: ≥500 nM=A; <100-500 nM=B; <100 nM=C.

CDK2/Cyclin E = target: T2, CDK2/Cyclin E (Homo sapiens, UniProt P24941); test: Biochemical CDK inhibition assay (Caliper mobility shift), CDK2/Cyclin E; conditions: read-out: CDK2/cyclin E1 IC50
T2 construct: purchased Eurofins 14-475
Procedure: as §1, §2

T1 sequence (P06493 whole entry): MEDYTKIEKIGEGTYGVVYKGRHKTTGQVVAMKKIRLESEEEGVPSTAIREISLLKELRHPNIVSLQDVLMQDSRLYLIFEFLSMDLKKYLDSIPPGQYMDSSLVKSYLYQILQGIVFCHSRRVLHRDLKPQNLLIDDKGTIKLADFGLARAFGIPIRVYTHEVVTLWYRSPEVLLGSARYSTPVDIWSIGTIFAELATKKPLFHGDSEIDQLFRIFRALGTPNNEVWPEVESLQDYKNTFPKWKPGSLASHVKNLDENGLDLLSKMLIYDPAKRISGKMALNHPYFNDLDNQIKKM
T1 sequence (P14635 whole entry partner): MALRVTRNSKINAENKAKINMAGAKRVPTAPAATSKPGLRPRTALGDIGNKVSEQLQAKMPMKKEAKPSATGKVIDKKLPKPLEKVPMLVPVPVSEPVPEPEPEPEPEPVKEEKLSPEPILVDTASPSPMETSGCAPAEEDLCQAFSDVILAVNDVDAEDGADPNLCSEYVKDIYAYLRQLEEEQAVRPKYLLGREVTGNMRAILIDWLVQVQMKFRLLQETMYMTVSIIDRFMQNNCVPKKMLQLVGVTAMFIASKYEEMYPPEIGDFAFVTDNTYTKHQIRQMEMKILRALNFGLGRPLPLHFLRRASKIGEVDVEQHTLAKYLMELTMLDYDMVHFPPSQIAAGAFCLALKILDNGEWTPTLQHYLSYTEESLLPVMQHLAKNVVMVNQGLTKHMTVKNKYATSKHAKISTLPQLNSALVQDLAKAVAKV

pIC50 (CDK1/Cyclin B1, GST-tag) | pIC50 (CDK2/Cyclin E) | SMILES
6.30 to 7.00 | ≥ 8.00 | CC(C)(O)Cn1cc(-c2nc(Nc3ccc(S(N)(=O)=O)cc3F)ncc2C(F)F)cn1 [Example 11, 4-((5-(difluoromethyl)-4-(1-(2-hydroxy-2-methylpropyl)-1H-pyrazol-4-yl)pyrimidin-2-yl)amino)-3-fluorobenzenesulfonamide]
6.30 to 7.00 | ≥ 8.00 | NS(=O)(=O)c1ccc(Nc2ncc(C(F)(F)F)c(-c3cnn(C4(CO)CC4)c3)n2)c(F)c1 [Example 16, 3-fluoro-4-((4-(1-(1-(hydroxymethyl)cyclopropyl)-1H-pyrazol-4-yl)-5-(trifluoromethyl)pyrimidin-2-yl)amino)benzenesulfonamide]
6.30 to 7.00 | ≥ 8.00 | C[C@@H](O)Cn1cc(-c2nc(Nc3ccc(S(N)(=O)=O)cc3F)ncc2C(F)(F)F)cn1 [Example 20, (R)-3-fluoro-4-((4-(1-(2-hydroxypropyl)-1H-pyrazol-4-yl)-5-(trifluoromethyl)pyrimidin-2-yl)amino)benzenesulfonamide]
6.30 to 7.00 | ≥ 8.00 | CC(C)(CO)n1cc(-c2nc(Nc3ccc(S(N)(=O)=O)cc3F)ncc2C(F)(F)F)cn1 [Example 22, 3-fluoro-4-((4-(1-(1-hydroxy-2-methylpropan-2-yl)-1H-pyrazol-4-yl)-5-(trifluoromethyl)pyrimidin-2-yl)amino)benzenesulfonamide]
6.30 to 7.00 | ≥ 8.00 | COc1cc(S(N)(=O)=O)ccc1Nc1ncc(C(F)(F)F)c(-c2cnn(CC(C)(C)O)c2)n1 [Example 27, 4-((4-(1-(2-hydroxy-2-methylpropyl)-1H-pyrazol-4-yl)-5-(trifluoromethyl)pyrimidin-2-yl)amino)-3-methoxybenzenesulfonamide]
6.30 to 7.00 | ≥ 8.00 | CC(C)(O)Cn1cc(-c2nc(Nc3ccc(S(N)(=O)=O)cc3F)ncc2F)cn1 [Example 30, 3-fluoro-4-((5-fluoro-4-(1-(2-hydroxy-2-methylpropyl)-1H-pyrazol-4-yl)pyrimidin-2-yl)amino)benzenesulfonamide]
≤ 6.30 | 7.70 to 8.00 | NS(=O)(=O)c1ccc(Nc2ncc(C(F)(F)F)c(-c3cnn(CC(O)C4CC4)c3)n2)c(F)c1 (centres unmarked) [Example 32, 4-((4-(1-(2-cyclopropyl-2-hydroxyethyl)-1H-pyrazol-4-yl)-5-(trifluoromethyl)pyrimidin-2-yl)amino)-3-fluorobenzenesulfonamide]
≤ 6.30 | 7.70 to 8.00 | C[C@H](O)Cn1cc(-c2nc(Nc3ccc(S(N)(=O)=O)cc3F)ncc2C(F)(F)F)cn1 [Example 35, (S)-3-fluoro-4-((4-(1-(2-hydroxypropyl)-1H-pyrazol-4-yl)-5-(trifluoromethyl)pyrimidin-2-yl)amino)benzenesulfonamide]
≤ 6.30 | 7.70 to 8.00 | NS(=O)(=O)c1ccc(Nc2ncc(C(F)(F)F)c(-c3cnn(CC4(O)COC4)c3)n2)c(F)c1 [Example 41, 3-fluoro-4-((4-(1-((3-hydroxyoxetan-3-yl)methyl)-1H-pyrazol-4-yl)-5-(trifluoromethyl)pyrimidin-2-yl)amino)benzenesulfonamide]
≤ 6.30 | 7.52 to 7.70 | NS(=O)(=O)c1ccc(Nc2ncc(C(F)(F)F)c(-c3cnn(C4COC4)c3)n2)c(F)c1 [Example 43, 3-fluoro-4-((4-(1-(oxetan-3-yl)-1H-pyrazol-4-yl)-5-(trifluoromethyl)pyrimidin-2-yl)amino)benzenesulfonamide]

Further lines, the compound ahead of its results:

SMILES | pIC50 (CDK1/Cyclin B1, GST-tag) | pIC50 (CDK2/Cyclin E)
Cc1cc(S(N)(=O)=O)ccc1Nc1ncc(Cl)c(-c2cnn(CC(C)(C)O)c2)n1 [Example 14] | > 7.00 | ≥ 8.00
Cc1cnc(Nc2ccc(S(N)(=O)=O)cc2)nc1-c1cnn(CC(C)(C)O)c1 [Example 17, 4-((4-(1-(2-hydroxy-2-methylpropyl)-1H-pyrazol-4-yl)-5-methylpyrimidin-2-yl)amino)benzenesulfonamide] | 6.30 to 7.00 | ≥ 8.00
CC(C)(O)Cn1cc(-c2nc(Nc3ccc(S(N)(=O)=O)cc3)ncc2F)cn1 [Example 18, 4-((5-fluoro-4-(1-(2-hydroxy-2-methylpropyl)-1H-pyrazol-4-yl)pyrimidin-2-yl)amino)benzenesulfonamide] | > 7.00 | ≥ 8.00
CC(C)(O)Cn1cc(-c2nc(Nc3ccc(S(N)(=O)=O)cc3F)ncc2C#N)cn1 [Example 19, 4-((5-cyano-4-(1-(2-hydroxy-2-methylpropyl)-1H-pyrazol-4-yl)pyrimidin-2-yl)amino)-3-fluorobenzenesulfonamide] | 6.30 to 7.00 | ≥ 8.00
Cc1c(S(N)(=O)=O)ccc(Nc2ncc(C(F)(F)F)c(-c3cnn(CC(C)(C)O)c3)n2)c1F [Example 21, 3-fluoro-4-((4-(1-(2-hydroxy-2-methylpropyl)-1H-pyrazol-4-yl)-5-(trifluoromethyl)pyrimidin-2-yl)amino)-2-methylbenzenesulfonamide] | 6.30 to 7.00 | ≥ 8.00
CC(C)(O)Cn1cc(-c2nc(Nc3ccc(S(N)(=O)=O)cc3Cl)ncc2Cl)cn1 [Example 23, 3-chloro-4-((5-chloro-4-(1-(2-hydroxy-2-methylpropyl)-1H-pyrazol-4-yl)pyrimidin-2-yl)amino)benzenesulfonamide] | 6.30 to 7.00 | ≥ 8.00
CCc1cnc(Nc2ccc(S(N)(=O)=O)cc2)nc1-c1cnn(CC(C)(C)O)c1 [Example 24, 4-((5-ethyl-4-(1-(2-hydroxy-2-methylpropyl)-1H-pyrazol-4-yl)pyrimidin-2-yl)amino)benzenesulfonamide] | 6.30 to 7.00 | ≥ 8.00
COc1cc(S(N)(=O)=O)ccc1Nc1ncc(Cl)c(-c2cnn(CC(C)(C)O)c2)n1 [Example 28, 4-((5-chloro-4-(1-(2-hydroxy-2-methylpropyl)-1H-pyrazol-4-yl)pyrimidin-2-yl)amino)-3-methoxybenzenesulfonamide] | 6.30 to 7.00 | ≥ 8.00
Cc1cc(S(N)(=O)=O)ccc1Nc1ncc(F)c(-c2cnn(CC(C)(C)O)c2)n1 [Example 31, 4-((5-fluoro-4-(1-(2-hydroxy-2-methylpropyl)-1H-pyrazol-4-yl)pyrimidin-2-yl)amino)-3-methylbenzenesulfonamide] | 6.30 to 7.00 | ≥ 8.00
N#Cc1cnc(Nc2ccc(S(N)(=O)=O)cc2)nc1-c1cnn(CCO)c1 [Example 34, 4-((5-cyano-4-(1-(2-hydroxyethyl)-1H-pyrazol-4-yl)pyrimidin-2-yl)amino)benzenesulfonamide] | 6.30 to 7.00 | 7.70 to 8.00
Cc1cnc(Nc2ccc(S(N)(=O)=O)cc2F)nc1-c1cnn(CC(C)(C)O)c1 [Example 36, 3-fluoro-4-((4-(1-(2-hydroxy-2-methylpropyl)-1H-pyrazol-4-yl)-5-methylpyrimidin-2-yl)amino)benzenesulfonamide] | ≤ 6.30 | 7.70 to 8.00
Cc1cc(Nc2ncc(C(F)(F)F)c(-c3cnn(CC(C)(C)O)c3)n2)cc(C)c1S(N)(=O)=O [Example 37, 4-((4-(1-(2-hydroxy-2-methylpropyl)-1H-pyrazol-4-yl)-5-(trifluoromethyl)pyrimidin-2-yl)amino)-2,6-dimethylbenzenesulfonamide] | 6.30 to 7.00 | 7.70 to 8.00
CC(C)(O)Cn1cc(-c2nc(Nc3ccc(S(N)(=O)=O)c(Cl)c3F)ncc2C(F)(F)F)cn1 [Example 38, 2-chloro-3-fluoro-4-((4-(1-(2-hydroxy-2-methylpropyl)-1H-pyrazol-4-yl)-5-(trifluoromethyl)pyrimidin-2-yl)amino)benzenesulfonamide] | ≤ 6.30 | 7.70 to 8.00
N#Cc1cnc(Nc2ccc(S(N)(=O)=O)cc2)nc1-c1cnn(C2COC2)c1 [Example 39, 4-((5-cyano-4-(1-(oxetan-3-yl)-1H-pyrazol-4-yl)pyrimidin-2-yl)amino)benzenesulfonamide] | ≤ 6.30 | 7.70 to 8.00
COc1c(S(N)(=O)=O)ccc(Nc2ncc(C(F)(F)F)c(-c3cnn(CC(C)(C)O)c3)n2)c1F [Example 40, 3-fluoro-4-((4-(1-(2-hydroxy-2-methylpropyl)-1H-pyrazol-4-yl)-5-(trifluoromethyl)pyrimidin-2-yl)amino)-2-methoxybenzenesulfonamide] | ≤ 6.30 | 7.70 to 8.00
CCc1cnc(Nc2ccc(S(N)(=O)=O)cc2F)nc1-c1cnn(CC(C)(C)O)c1 [Example 42, 4-((5-ethyl-4-(1-(2-hydroxy-2-methylpropyl)-1H-pyrazol-4-yl)pyrimidin-2-yl)amino)-3-fluorobenzenesulfonamide] | ≤ 6.30 | 7.52 to 7.70
CC(C)(O)Cn1cc(-c2nc(Nc3ccc(S(N)(=O)=O)cc3Cl)ncc2F)cn1 [Example 44, 3-chloro-4-((5-fluoro-4-(1-(2-hydroxy-2-methylpropyl)-1H-pyrazol-4-yl)pyrimidin-2-yl)amino)benzenesulfonamide] | ≤ 6.30 | 7.52 to 7.70
Cc1cc(Nc2ncc(C(F)(F)F)c(-c3cnn(CC(C)(C)O)c3)n2)c(F)cc1S(N)(=O)=O [Example 45, 5-fluoro-4-((4-(1-(2-hydroxy-2-methylpropyl)-1H-pyrazol-4-yl)-5-(trifluoromethyl)pyrimidin-2-yl)amino)-2-methylbenzenesulfonamide] | ≤ 6.30 | 7.52 to 7.70
